From patent publication US7345091B2, “Carotenoid ether analogs or derivatives for the inhibition and amelioration of disease” (Cardax Pharmaceuticals, Inc., priority 2002, dated 2008)
Where a name gives a salt, the structure may show the parent alone.

Experiments:
[1] = tested on: mouse embryonic fibroblast C3H/10T 1/2 cells; assay: Gap junctional communication assay (Lucifer Yellow dye transfer); type: cell-based; conditions: 1×10^-5 M in 1:2 EtOH/H2O, 4 days; for extent of junctional communication: vs solvent controls
Procedure: A series of experiments were performed to assess the ability of the disodium salt disuccinate astaxanthin derivatives XVI to induce gap junctional communication (GJC) in an immortalized line of murine fibroblasts. Studies were conducted: • (1) at the functional level to measure cell/cell communication by increased dye transfer between confluent cells in monolayer culture; • (2) at the molecular level as measured by the ability of these compounds to induce expression of connexin43 (Cx43) protein. Cx43 is the structural unit of the intercellular channels in these fibroblasts that allows GJC; • (3) at the cellular level as shown by the ability of the disodium salt disuccinate astaxanthin derivatives XVI to increase the number and size of Cx43 immunoreactive plaques in regions of the plasma membrane in direct contact with adjacent cells. (1) Communication Assays. Experiments were performed to assess the ability of the disodium salt disuccinate astaxanthin derivative XVI [as a statistical mixture of the all-trans (all-E) stereoisomers, 3S,3′S, meso, and 3R,3′R in 1:2:1 ratio] to enhance gap junctional intercellular communication (GJC) between mouse embryonic fibroblast C3H/10T 1/2 cells. This ability has been previously highly correlated with the ability of carotenoids to inhibit carcinogen-induced neoplastic transformation (Zhang, 1992). Moreover, Cx43-mediated junctional communication between cardiac myocytes is responsible for transfer of signals that maintain synchronous contractions and prevent cardiac arrhythmias (Peters, 1995). Junctional permeability was assayed by microinjection of the fluorescent dye Lucifer Yellow CH (Sigma, St. Louis, Mo.) into individual confluent cells essentially as described previously (Zhang, 1994). […] Successful injection of Lucifer Yellow was confirmed by brief illumination with UV light, which causes yellow fluorescence of Lucifer Yellow. […] The number of fluorescent cells adjacent to the injected cell was later determined by digital image analysis using an unbiased density threshold method and the SigmaScan software program (Jandel Scientific). […]

[2] = Determination of water solubility; type: physicochemical
Procedure: A total of 30 mg of sample (disodium disuccinate astaxanthin derivative, as the all-trans mixture of stereoisomers 3S,3′S, meso, and 3R,3′R in a 1:2:1 ratio) was added to 2 mL of sterile-filtered ([…] Millipore®) deionized (DI) water in a 15 mL glass centrifuge tube. The tube was wrapped in aluminum foil and the mixture was shaken for 2 hours, then centrifuged at 3500 rpm for 10 minutes. The aqueous solution was filtered through a 0.45 micron PVDF disposable filter device. A 1 mL volume of filtrate was then diluted appropriately with DI water, and the concentration of the solution was measured at 480 nm using a four point calibration curve prepared from fresh sample.

[3] = tested on: connexin 43 protein expression; assay: Induction of connexin 43 protein expression (Western blot, 96 hours); type: cell-based, mouse; conditions: 96 hours
Procedure: In brief, mouse embryonic fibroblast CH3/10T^1/2 cells were treated with the following formulations in a 4 mL cell culture system with media containing 2% calf serum: • 1. TTNPB [p-(E)-2-(5,6,7,8-tetrahydro-5,5,8,8-tetramethyl-2-napthyl) propenyl benzoic acid] 10^−8 M in acetone [positive control for connexin 43 upregulation (4 μL in 4 mL] • 2. Disodium salt disuccinate astaxanthin derivative XVI/H2O at 10^−5 M (40 μl in 4 mL) • 3. Disodium salt disuccinate astaxanthin derivative XVI/H2O at 10^−6 M (4 μl in 4 mL) • 4. Disodium salt disuccinate astaxanthin derivative XVI/H2O at 10^−7 M (1:10 dilution and 4 μl in 4 mL) • 5. Disodium salt disuccinate astaxanthin derivative XVI H2O/ethanol [EtOH] formulation at 10^-5 M (40 μl in 4 mL) • 6. Disodium salt disuccinate astaxanthin derivative XVI H2O/EtOH formulation at 10^−6 M (4 μl in 4 mL) • 7. Sterile H2O control (40 μl in 4 mL) • 8. Sterile H2O/EtOH control (20 μL EtOH, 20 μL H2O in 4 mL) • 9. Media control (4 mL)
Cells were harvested after 96 hours incubation with test compounds and control solutions. All media solutions were identical in color, however after treatment with the disodium salt disuccinate astaxanthin derivative XVI at both 10^−5 dilutions, the color subjectively changed to an orange-red color. Cells treated with TTNPB appeared striated with light microscopy, evidence of differentiation to myocytes, an expected result in this cell culture system. After harvest and pelleting of cells, tubes containing both 10^−5 disodium salt disuccinate astaxanthin derivative XVI solutions were bright red; both 10^−6 dilution tubes were a pink color. As documented previously for other colored carotenoids, this was subjective evidence for cellular uptake of the test compounds.
Cells were then lysed, and 50 μg of each protein was electrophoresed on a 10% polyacrylamide gel. The gel was then transferred to a nitrocellulose filter. Total protein was assayed with Coomassie blue staining (FIG. 29; lanes 6, 7, and 9 were smeared secondary to gel transfer, and were not included in the quantitative comparison [FIG. 31)]. […]

CC1=C(/C=C/C(C)=C/C=C/C(C)=C/C=C/C=C(C)/C=C/C=C(C)/C=C/C2=C(C)C(=O)C(OC(=O)CCC(=O)O)CC2(C)C)C(C)(C)CC(OC(=O)CCC(=O)O)C1=O (racemic) [XVI, Disodium Salt of the Disuccinic Acid Ester of Astaxanthin]
microinjected treated cells functionally coupled by gap junctions ([1]; 15 of 22 cells, control 27%): 56% | extent of junctional communication [1]: effectively increased the extent of junctional communication | extent of junctional communication ([1]; listed as disodium salt disuccinate astaxanthin derivative): induces functional gap junctional communication | solubility at 2 h ([2]; deionized water, water, thermodynamic from solid, pure aqueous formulation): 8.64 mg/mL | increase in solubility in the dosing vehicle ([2]; emulsion vs pure aqueous formulation): 6 fold | solubility ([2]; olive oil/water/soybean lecithin emulsion, aqueous with cosolvent or surfactant or cyclodextrin, olive oil/water/soybean lecithin emulsion for oral gavage): ~50 mg/mL | water solubility ([2]; pure aqueous formulation): approximately 8.64 mg/mL | induction of connexin 43 protein expression ([3]; water 10^-5 to 10^-7 M and EtOH/H2O formulations, vs water and ethanol/water controls): induced connexin 43 protein expression | connexin 43 induction level compared with TTNPB positive control ([3]; in water at concentrations greater than 10^-7 and in ethanol/water at 10^-5): higher inductions levels than the positive TTNPB control
